{"source": "paper PMC10700596", "about": "(Nature Communications, 2023)", "key": {"[1]": {"test_system": "mice", "format": "in vivo"}, "[2]": {"test_system": "mice", "format": "in vivo", "remark": "listed apart in the source"}, "[3]": {"test_system": "mice", "format": "in vivo", "experimental": "For all behavioral tests, the experimenter was always blind to treatment. Animals were habituated for 60 min in Plexiglas cylinders before testing. […] For 10 mg/kg doses, compounds were prepared in 2.5 mg/ml solutions of which 100 µL were administered to mice (average weight 25 g). For 30 mg/kg doses, 7.5 mg/ml solutions were prepared. […] Hindpaw mechanical thresholds were determined with von Frey filaments using the up-down method, 60 min after administration of the EP4R antagonists (i.p. or via oral gavage). For the ambulatory (rotarod) test, mice were first trained on an accelerating rotating rod, 3 times for 5 minutes, before testing with any compound. On the test day, latency to fall from the rod was measured 1 h after injection of the compound. The cutoff was 300 s. Statistical tests were performed with GraphPad Prism 9.0 (GraphPad Software Inc., San Diego).", "remark": "listed apart in the source"}, "[4]": {"test_system": "mice", "format": "in vivo", "details": "for Carrageenan-induced allodynia, mechanical threshold (von Frey): individual animals"}, "[5]": {"details": "cited from earlier work"}}, "note": "Values joined by “and” are separate entries in the source; they are usually repeats but may differ in a detail not shown here. Identical values can stand only once. “Also recorded” adds a separate entry of the source. Like-named read-outs stand apart in the source and are kept apart here.", "data": [{"smiles": "O=C([O-])C1CCC2(CC1)CC(Nc1ncnc3[nH]c4c(F)cccc4c13)C2.[Na+]", "note": "(stereo not shown) [Compound 77, [Na+].[O-]C(=O)C1CCC2(CC(C2)NC=3N=CN=C4NC=5C(F)=CC=CC5C34)CC1]", "values": [{"measurement": "PGE2-induced allodynia, mechanical threshold (von Frey)", "setting": "[1]; 30 mg/kg IP, 30 min before 10 µg intraplantar PGE2, individual animals", "result": "121.3 and 118.3 and 44.9 and 101.1 and 46.9"}, {"measurement": "effect on PGE2-induced mechanical hypersensitivity", "setting": "[1]; mouse, in vivo", "result": "dose-dependently prevented mechanical hypersensitivity; also recorded: dose-dependently reduces mechanical allodynia"}, {"measurement": "effect on CFA-induced paw edema", "setting": "[2]; 30 mg/kg i.p. daily on four consecutive days", "result": "significantly reduced the progression of CFA-induced inflammation; also recorded: significantly slowed the development of paw edema"}, {"measurement": "reduction of paw thickness versus the control group", "setting": "[2]; 30 mg/kg i.p. daily on four consecutive days after CFA", "result": "up to 20%"}, {"measurement": "Thickness D1 %BL", "setting": "[2]; 77 30 mg/kg, CFA day 1, 1 h after dosing, % of CFA D1 thickness, individual mice 6-10 and Average, 30 mg/kg", "result": "92.0% and 93.2% and 87.6% and 98.7% and 95.8%"}, {"measurement": "Thickness D1", "setting": "[2]; 77 30 mg/kg, CFA day 1, 1 h after dosing, individual mice 6-10 and Average, 30 mg/kg", "result": "3.58 and 3.3 and 3.4 and 3.89 and 3.68"}, {"measurement": "Thickness D2 (1h) %BL", "setting": "[2]; 77 30 mg/kg, CFA day 2, 1 h, % of CFA D1 thickness, individual mice 6-10 and Average, 30 mg/kg", "result": "115.7% and 120.9% and 116.5% and 109.1% and 119.8%"}, {"measurement": "Thickness D2 (1h)", "setting": "[2]; 77 30 mg/kg, CFA day 2, 1 h, individual mice 6-10 and Average, 30 mg/kg", "result": "4.5 and 4.28 and 4.52 and 4.3 and 4.6"}, {"measurement": "Thickness BL D2", "setting": "[2]; 77 30 mg/kg, CFA day 2 before that day's dose (vehicle head: CFA D2), individual mice 6-10 and Average, 30 mg/kg", "result": "4.81 and 4.39 and 4.69 and 4.16 and 4.59"}, {"measurement": "Thickness BL D2 %", "setting": "[2]; 77 30 mg/kg, CFA day 2 before that day's dose, % of CFA D1 thickness, individual mice 6-10 and Average, 30 mg/kg", "result": "123.7% and 124.0% and 120.9% and 105.6% and 119.5%"}, {"measurement": "Thickness D3 (1h) %", "setting": "[2]; 77 30 mg/kg, CFA day 3, 1 h, % of CFA D1 thickness, individual mice 6-10 and Average, 30 mg/kg", "result": "128.5% and 117.8% and 103.9% and 101.5% and 122.4%"}, {"measurement": "Thickness D3 (1h)", "setting": "[2]; 77 30 mg/kg, CFA day 3, 1 h, individual mice 6-10 and Average, 30 mg/kg", "result": "5 and 4.17 and 4.03 and 4 and 4.7"}, {"measurement": "Thickness CFA D3 %", "setting": "[2]; 77 30 mg/kg, CFA day 3 before that day's dose, % of CFA D1 thickness, individual mice 6-10 and Average, 30 mg/kg", "result": "131.9% and 121.8% and 110.3% and 105.1% and 128.9%"}, {"measurement": "Thickness CFA D3", "setting": "[2]; 77 30 mg/kg, CFA day 3 before that day's dose, individual mice 6-10 and Average, 30 mg/kg", "result": "5.13 and 4.31 and 4.28 and 4.14 and 4.95"}, {"measurement": "Thickness D4 (1h) %", "setting": "[2]; 77 30 mg/kg, CFA day 4, 1 h, % of CFA D1 thickness, individual mice 6-10 and Average, 30 mg/kg", "result": "113.1% and 107.3% and 103.1% and 103.6% and 104.7%"}, {"measurement": "Thickness D4 (1h)", "setting": "[2]; 77 30 mg/kg, CFA day 4, 1 h, individual mice 6-10 and Average, 30 mg/kg", "result": "4.4 and 3.8 and 4 and 4.08 and 4.02"}, {"measurement": "Thickness CFA D4 %", "setting": "[2]; 77 30 mg/kg, CFA day 4 before that day's dose, % of CFA D1 thickness, individual mice 6-10 and Average, 30 mg/kg", "result": "118.3% and 110.2% and 107.5% and 106.1% and 109.1%"}, {"measurement": "Thickness CFA D4", "setting": "[2]; 77 30 mg/kg, CFA day 4 before that day's dose, individual mice 6-10 and Average, 30 mg/kg", "result": "4.6 and 3.9 and 4.17 and 4.18 and 4.19"}, {"measurement": "Thickness CFA D5 %", "setting": "[2]; 77 30 mg/kg, CFA day 5, % of CFA D1 thickness, individual mice 6-10 and Average, 30 mg/kg", "result": "100.0% and 107.3% and 97.4% and 90.6% and 104.2%"}, {"measurement": "Thickness CFA D5", "setting": "[2]; 77 30 mg/kg, CFA day 5, individual mice 6-10 and Average, 30 mg/kg", "result": "3.89 and 3.8 and 3.78 and 3.57 and 4"}, {"measurement": "Thickness CFA D7 %", "setting": "[2]; 77 30 mg/kg, CFA day 7, % of CFA D1 thickness, individual mice 6-10 and Average, 30 mg/kg", "result": "102.8% and 96.0% and 90.2% and 86.0% and 106.8%"}, {"measurement": "Thickness CFA D7", "setting": "[2]; 77 30 mg/kg, CFA day 7, individual mice 6-10 and Average, 30 mg/kg", "result": "4 and 3.4 and 3.5 and 3.39 and 4.1"}, {"measurement": "Rotarod latency to fall", "setting": "[3]; 30 mg/kg IP, 1 h after injection, cutoff 300 s, individual animals", "result": "300 s and 281 s and 295 s and 269 s"}, {"measurement": "motor impairment in the rotarod test", "setting": "[3]; mouse, in vivo", "result": "did not induce motor impairment"}, {"measurement": "Uninjured mice, individual animal values (Supplementary Figure 10A)", "setting": "[3]; uninjured mice, IP 30 mg/kg, single animals, 30 mg/kg", "result": "116 and 71.5 and 93.5 and 86.1 and 110.4"}, {"measurement": "Carrageenan-induced allodynia, mechanical threshold (von Frey)", "setting": "[4]; 10 mg/kg IP", "result": "27 and 58.1 and 18.1 and 18.3 and 32 and 31.3 and 24.3 and 20.9 and 32.5 and 40"}, {"measurement": "effect on carrageenan-mediated mechanical allodynia", "setting": "[4]; 10 mg/kg i.p.", "result": "equal anti-allodynic effects; also recorded: equally reduce carrageenan-mediated mechanical allodynia"}, {"measurement": "Carrageenan-induced allodynia, mechanical threshold (von Frey)", "setting": "[4]; 30 mg/kg IP", "result": "30.3 and 39.4 and 44.8 and 39.1 and 40.4"}, {"measurement": "Carrageenan-induced allodynia, mechanical threshold (von Frey)", "setting": "[4]; 30 mg/kg PO", "result": "45.8 and 24.2 and 57.3 and 32.3 and 42.9 and 24.5 and 10.4 and 51.4 and 11.4 and 35.4"}, {"measurement": "effect on carrageenan-mediated mechanical allodynia", "setting": "[4]; 30 mg/kg i.p. or p.o.", "result": "significant anti-allodynic properties"}]}, {"smiles": "CCc1nc2c(C)nc(C)cc2n1-c1ccc(CCNC(=O)NS(=O)(=O)c2ccc(C)cc2)cc1", "note": "[Grapiprant, reference compound]", "values": [{"measurement": "reported oral bioavailability", "setting": "[5]", "result": 5, "unit": "%"}]}]}
